Results as given in US20260028365A1 (BIOGEN MA INC., priority 2022, published 2026).
Read-outs that look alike come from different tables or passages of the source.

Legend:
JH2 domain of human Tyk2 = JH2 domain of human Tyk2 (Homo sapiens (Human), UniProt P29597); experiment: JH2 Biochemical Assay (TR-FRET probe displacement); type: binding
Tyk2 = Tyk2 (Homo sapiens (Human), UniProt P29597); experiment: pSTAT4 Cell Assay (MSD, NK92 cells); type: cell-based
JAK1 = JAK1 (Homo sapiens (Human), UniProt P23458); experiment: pSTAT3 Cell Assay (MSD, TF1 cells); type: cell-based
Chain of JAK1 (P23458 whole entry): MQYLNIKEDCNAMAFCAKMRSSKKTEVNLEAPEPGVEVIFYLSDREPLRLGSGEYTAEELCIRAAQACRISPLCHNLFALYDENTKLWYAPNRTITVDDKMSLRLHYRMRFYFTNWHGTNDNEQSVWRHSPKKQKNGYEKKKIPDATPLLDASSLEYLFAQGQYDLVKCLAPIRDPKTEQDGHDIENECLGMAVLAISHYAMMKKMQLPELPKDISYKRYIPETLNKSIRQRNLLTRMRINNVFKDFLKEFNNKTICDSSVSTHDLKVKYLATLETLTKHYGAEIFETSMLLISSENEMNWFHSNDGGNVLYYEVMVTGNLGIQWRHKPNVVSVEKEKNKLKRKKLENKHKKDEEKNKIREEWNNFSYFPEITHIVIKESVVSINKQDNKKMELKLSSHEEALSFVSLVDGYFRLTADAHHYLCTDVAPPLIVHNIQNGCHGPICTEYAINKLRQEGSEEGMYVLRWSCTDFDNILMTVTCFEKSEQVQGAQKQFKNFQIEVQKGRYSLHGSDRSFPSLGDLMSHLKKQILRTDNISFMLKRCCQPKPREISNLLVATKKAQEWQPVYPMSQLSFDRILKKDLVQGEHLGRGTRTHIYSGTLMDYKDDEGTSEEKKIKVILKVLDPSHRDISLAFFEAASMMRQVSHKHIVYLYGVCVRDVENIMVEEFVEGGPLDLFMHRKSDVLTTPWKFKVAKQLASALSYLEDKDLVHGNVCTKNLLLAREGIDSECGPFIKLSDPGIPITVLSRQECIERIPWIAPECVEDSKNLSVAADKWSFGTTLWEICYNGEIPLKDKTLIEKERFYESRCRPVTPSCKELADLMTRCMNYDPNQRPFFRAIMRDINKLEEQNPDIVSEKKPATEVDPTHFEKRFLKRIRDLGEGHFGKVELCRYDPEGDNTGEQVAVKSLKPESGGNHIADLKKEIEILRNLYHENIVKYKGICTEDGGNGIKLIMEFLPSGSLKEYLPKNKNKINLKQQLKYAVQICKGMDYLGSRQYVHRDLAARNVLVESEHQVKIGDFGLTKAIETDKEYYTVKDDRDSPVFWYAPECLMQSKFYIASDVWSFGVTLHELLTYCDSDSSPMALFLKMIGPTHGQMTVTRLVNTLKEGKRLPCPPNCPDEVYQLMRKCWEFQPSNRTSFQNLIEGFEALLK
Description: The inhibitory potency of compounds of the disclosure against the JAK1 kinase activity on STAT3 was evaluated using an MSD-platform plate-based assay format. TF1 cells natively expressing STAT3 and JAK1 were serum-starved to reduce background phosphorylation levels, then cells were treated with compounds of the disclosure for 1 hour with a 10-point four-fold dilution series starting at 10 μM. Cells were then stimulated with 30 ng/mL interleukin 6 (IL-6) for 15 minutes. Cells were lysed and pSTAT3 levels were quantitated using an MSD plate-based assay with anti-STAT3 antibodies. The data were normalized and the percent activity versus log concentration of compound was fitted with a 4-parameter logistic model to generate IC50 curves.

[1] = TR-FRET probe displacement, JH2 domain
[2] = TR-FRET probe displacement, JH2 domain of human Tyk2
[3] = JH2 domain of human Tyk2, TR-FRET probe displacement

Chain of Tyk2 (P29597 whole entry): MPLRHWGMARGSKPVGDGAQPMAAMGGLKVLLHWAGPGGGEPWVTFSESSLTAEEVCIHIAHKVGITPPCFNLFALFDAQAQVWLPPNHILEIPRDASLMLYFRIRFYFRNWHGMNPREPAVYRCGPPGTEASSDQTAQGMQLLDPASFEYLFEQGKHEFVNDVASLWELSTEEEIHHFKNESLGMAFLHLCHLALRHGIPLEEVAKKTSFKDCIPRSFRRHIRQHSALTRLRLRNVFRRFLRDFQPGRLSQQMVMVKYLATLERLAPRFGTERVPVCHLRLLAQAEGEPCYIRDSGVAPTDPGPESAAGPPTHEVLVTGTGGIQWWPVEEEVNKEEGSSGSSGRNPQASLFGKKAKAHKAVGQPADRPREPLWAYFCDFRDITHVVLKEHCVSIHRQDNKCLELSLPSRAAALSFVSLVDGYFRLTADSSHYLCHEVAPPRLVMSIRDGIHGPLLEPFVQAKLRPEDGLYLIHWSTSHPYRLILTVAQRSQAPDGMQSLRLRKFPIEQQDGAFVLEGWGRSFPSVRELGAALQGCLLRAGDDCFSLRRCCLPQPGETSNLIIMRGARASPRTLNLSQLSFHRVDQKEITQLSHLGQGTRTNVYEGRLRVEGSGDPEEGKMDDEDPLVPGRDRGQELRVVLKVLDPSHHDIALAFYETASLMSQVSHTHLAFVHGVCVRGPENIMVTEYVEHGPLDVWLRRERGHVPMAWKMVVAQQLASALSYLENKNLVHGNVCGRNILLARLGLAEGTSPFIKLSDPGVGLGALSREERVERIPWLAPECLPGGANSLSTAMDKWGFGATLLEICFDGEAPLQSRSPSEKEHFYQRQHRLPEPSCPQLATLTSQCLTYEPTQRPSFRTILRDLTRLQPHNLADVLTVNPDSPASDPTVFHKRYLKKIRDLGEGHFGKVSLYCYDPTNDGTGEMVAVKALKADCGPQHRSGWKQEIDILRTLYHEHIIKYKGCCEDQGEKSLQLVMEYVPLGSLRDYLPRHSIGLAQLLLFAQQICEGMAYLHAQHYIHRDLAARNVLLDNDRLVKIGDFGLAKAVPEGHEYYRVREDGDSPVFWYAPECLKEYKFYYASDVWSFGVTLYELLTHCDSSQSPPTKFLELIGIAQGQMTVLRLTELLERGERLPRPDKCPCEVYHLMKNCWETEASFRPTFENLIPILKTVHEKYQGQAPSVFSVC
Chain of JH2 domain of human Tyk2 (P29597 575-876): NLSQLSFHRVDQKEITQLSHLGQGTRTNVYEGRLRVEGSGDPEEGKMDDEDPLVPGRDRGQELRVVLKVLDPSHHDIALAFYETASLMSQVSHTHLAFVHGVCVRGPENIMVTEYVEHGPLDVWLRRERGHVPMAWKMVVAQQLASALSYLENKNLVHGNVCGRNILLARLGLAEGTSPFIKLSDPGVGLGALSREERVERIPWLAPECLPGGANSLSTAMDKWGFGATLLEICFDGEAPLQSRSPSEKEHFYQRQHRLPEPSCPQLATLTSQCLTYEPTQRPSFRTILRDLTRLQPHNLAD

## CC(=O)Nc1cc(Nc2ccnc(C(C)(F)F)n2)c(-c2nc3c(s2)CN(C)CC3)cn1 [Example 798, N-(4-((2-(1,1-difluoroethyl)pyrimidin-4-yl)amino)-5-(5-methyl-4,5,6,7-tetrahydrothiazolo[5,4-c]pyridin-2-yl)pyridin-2-yl)acetamide]
JH2 domain of human Tyk2; [1]
  IC50: ≤ 0.01 µM
Tyk2
  IC50: ≤ 0.01 µM
JAK1; IL-6 stimulated
  IC50: ≥ 1 µM

## CCc1cc(Nc2cc(NC(C)=O)ncc2-c2ccc(CN(C)C)cn2)nc(C(C)(F)F)n1 [Example 266, N-(4′-((2-(1,1-difluoroethyl)-6-ethylpyrimidin-4-yl)amino)-5-((dimethylamino)methyl)-[2,3′-bipyridin]-6′-yl)acetamide]
JH2 domain of human Tyk2; [2]
  IC50: ≤ 0.01 µM
Tyk2; MSD
  IC50: ≤ 0.01 µM
JAK1; IL-6 stimulation, MSD
  IC50: 0.1 to 1 µM

## CCc1cc(Nc2cc(NC(C)=O)ncc2-c2cnc(N3CCOCC3)cn2)nc(C(C)(F)F)n1 [Example 861, N-(4-((2-(1,1-difluoroethyl)-6-ethylpyrimidin-4-yl)amino)-5-(5-morpholinopyrazin-2-yl)pyridin-2-yl)acetamide]
JH2 domain of human Tyk2; [1]
  IC50: ≤ 0.01 µM
Tyk2
  IC50: 0.01 to 0.1 µM
JAK1; IL-6 stimulated
  IC50: ≥ 1 µM

## CC(=O)Nc1cc(Nc2cc(C)nc(C34COC(C3)C4)n2)c(-c2cc(C)ncn2)cn1 [Example 746, N-(4-((2-(2-oxabicyclo[2.1.1]hexan-4-yl)-6-methylpyrimidin-4-yl)amino)-5-(6-methylpyrimidin-4-yl)pyridin-2-yl)acetamide]
JH2 domain of human Tyk2; [1]
  IC50: ≤ 0.01 µM
Tyk2
  IC50: 0.1 to 1 µM
JAK1; IL-6 stimulated
  IC50: ≥ 1 µM

## CC(=O)Nc1cc(Nc2cc(C)nc(C(C)(F)F)n2)c(-c2cn3c(n2)COCC3)cn1 [Example 768, N-(4-((2-(1,1-difluoroethyl)-6-methylpyrimidin-4-yl)amino)-5-(5,6-dihydrO8H-imidazo[2,1-c][1,4]oxazin-2-yl)pyridin-2-yl)acetamide]
JH2 domain of human Tyk2; [1]
  IC50: ≤ 0.01 µM
Tyk2
  IC50: ≤ 0.01 µM
JAK1; IL-6 stimulated
  IC50: ≥ 1 µM

## CCc1cc(Nc2cc(NC(C)=O)ncc2-c2cc(C(F)F)ncn2)nc(C(C)(F)F)n1 [Example 891, N-(4-((2-(1,1-difluoroethyl)-6-ethylpyrimidin-4-yl)amino)-5-(6-(difluoromethyl)pyrimidin-4-yl)pyridin-2-yl)acetamide]
JH2 domain of human Tyk2; [1]
  IC50: ≤ 0.01 µM
Tyk2
  IC50: ≤ 0.01 µM
JAK1; IL-6 stimulated
  IC50: ≥ 1 µM

## CC(=O)Nc1cc(Nc2cc(C)nc(C(C)(F)F)n2)c(-c2nncs2)cn1 [Example 744, N-(4-((2-(1,1-difluoroethyl)-6-methylpyrimidin-4-yl)amino)-5-(1,3,4-thiadiazol-2-yl)pyridin-2-yl)acetamide]
JH2 domain of human Tyk2; [3]
  IC50: ≤ 0.01 µM
Tyk2; MSD
  IC50: ≤ 0.01 µM
JAK1; IL-6 stimulated, MSD
  IC50: ≥ 1 µM

## COCCc1cnc(-c2cnc(NC(C)=O)cc2Nc2cc(C)nc(C(C)(F)F)n2)s1 [Example 756, N-(4-((2-(1,1-difluoroethyl)-6-methylpyrimidin-4-yl)amino)-5-(5-(2-methoxyethyl)thiazol-2-yl)pyridin-2-yl)acetamide]
JH2 domain of human Tyk2; [1]
  IC50: ≤ 0.01 µM
Tyk2
  IC50: 0.1 to 1 µM
JAK1; IL-6 stimulated
  IC50: ≥ 1 µM

## CCc1cc(Nc2cc(NC(C)=O)ncc2-c2ccc(OC(F)F)cn2)nc(C(C)(F)F)n1 [Example 849, N-(4′-((2-(1,1-difluoroethyl)-6-ethylpyrimidin-4-yl)amino)-5-(difluoromethoxy)-[2,3′-bipyridin]-6′-yl)acetamide]
JH2 domain of human Tyk2; [1]
  IC50: ≤ 0.01 µM
Tyk2
  IC50: ≤ 0.01 µM
JAK1; IL-6 stimulated
  IC50: ≥ 1 µM

## CC(=O)Nc1cc(Nc2cc(C)nc(C(C)(F)F)n2)c(-c2ccc(N3CCN(C)CC3)cn2)cn1 [Example 651, N-(4′-((2-(1,1-difluoroethyl)-6-methylpyrimidin-4-yl)amino)-5-(4-methylpiperazin-1-yl)-[2,3′-bipyridin]-6′-yl)acetamide]
Tyk2; MSD
  IC50: ≤ 0.01 µM
JAK1; IL-6 stimulated, MSD
  IC50: ≥ 1 µM

## CC(=O)Nc1cc(Nc2cc(C)nc(C(C)(F)F)n2)c(C(F)(F)C2CC2)cn1 [Example 153, N-(5-(cyclopropyldifluoromethyl)-4-((2-(1,1-difluoroethyl)-6-methylpyrimidin-4-yl)amino)pyridin-2-yl)acetamide]
JH2 domain of human Tyk2; [2]
  IC50: ≤ 0.01 µM
Tyk2; MSD
  IC50: ≤ 0.01 µM
JAK1; IL-6 stimulation, MSD
  IC50: ≥ 1 µM

## CC(=O)Nc1cc(Nc2ccnc(C(C)(F)F)n2)c(-c2ccnc(C(F)F)n2)cn1 [Example 775, N-(4-((2-(1,1-difluoroethyl)pyrimidin-4-yl)amino)-5-(2-(difluoromethyl)pyrimidin-4-yl)pyridin-2-yl)acetamide]
JH2 domain of human Tyk2; [1]
  IC50: ≤ 0.01 µM
Tyk2
  IC50: ≤ 0.01 µM
JAK1; IL-6 stimulated
  IC50: ≥ 1 µM

## COCCOc1nccc(-c2cnc(NC(C)=O)cc2Nc2cc(C)nc(C(C)(F)F)n2)n1 [Example 776, N-(4-((2-(1,1-difluoroethyl)-6-methylpyrimidin-4-yl)amino)-5-(2-(2-methoxyethoxy)pyrimidin-4-yl)pyridin-2-yl)acetamide]
JH2 domain of human Tyk2; [1]
  IC50: ≤ 0.01 µM
Tyk2
  IC50: ≤ 0.01 µM
JAK1; IL-6 stimulated
  IC50: ≥ 1 µM

## COCc1ccc(-c2cnc(NC(C)=O)cc2Nc2cc(C)nc(C34CC(CO3)C4)n2)nc1 [Example 280, N-(4′-((2-(2-oxabicyclo[2.1.1]hexan-1-yl)-6-methylpyrimidin-4-yl)amino)-5-(methoxymethyl)-[2,3′-bipyridin]-6′-yl)acetamide]
JH2 domain of human Tyk2; [2]
  IC50: ≤ 0.01 µM
Tyk2; MSD
  IC50: ≤ 0.01 µM
JAK1; IL-6 stimulation, MSD
  IC50: ≥ 1 µM

## CC(=O)Nc1cc(Nc2cc(C)nc(C(C)(F)F)n2)c(-c2cnc(C(F)F)cn2)cn1 [Example 921, N-(4-((2-(1,1-difluoroethyl)-6-methylpyrimidin-4-yl)amino)-5-(5-(difluoromethyl)pyrazin-2-yl)pyridin-2-yl)acetamide]
JH2 domain of human Tyk2; [1]
  IC50: ≤ 0.01 µM
Tyk2
  IC50: 0.01 to 0.1 µM
JAK1; IL-6 stimulated
  IC50: ≥ 1 µM

## CCc1cc(Nc2cc(NC(C)=O)ncc2-c2ccc(NC)cn2)nc(C(C)(F)F)n1 [Example 859, N-(4′-((2-(1,1-difluoroethyl)-6-ethylpyrimidin-4-yl)amino)-5-(methylamino)-[2,3′-bipyridin]-6′-yl)acetamide]
JH2 domain of human Tyk2; [1]
  IC50: ≤ 0.01 µM
Tyk2
  IC50: ≤ 0.01 µM
JAK1; IL-6 stimulated
  IC50: ≥ 1 µM

## CNc1ccc(-c2cnc(NC(C)=O)cc2Nc2ccnc(C(C)(F)F)n2)nc1 [Example 857, N-(4′-((2-(1,1-difluoroethyl)pyrimidin-4-yl)amino)-5-(methylamino)-[2,3′-bipyridin]-6′-yl)acetamide]
JH2 domain of human Tyk2; [1]
  IC50: ≤ 0.01 µM
Tyk2
  IC50: ≤ 0.01 µM
JAK1; IL-6 stimulated
  IC50: ≥ 1 µM

## CC(=O)Nc1cc(Nc2cc(C)nc(C(C)(F)F)n2)c(-c2ncc(C)cn2)cn1 [Example 595, N-(4-((2-(1,1-difluoroethyl)-6-methylpyrimidin-4-yl)amino)-5-(5-methylpyrimidin-2-yl)pyridin-2-yl)acetamide]
JH2 domain of human Tyk2; [3]
  IC50: ≤ 0.01 µM
Tyk2; MSD
  IC50: 0.01 to 0.1 µM

## CCc1cc(Nc2cc(NC(C)=O)ncc2OCCCF)nc(C(C)(F)F)n1 [Example 405, N-(4-((2-(1,1-difluoroethyl)-6-ethylpyrimidin-4-yl)amino)-5-(3-fluoropropoxy)pyridin-2-yl)acetamide]
JH2 domain of human Tyk2; [3]
  IC50: ≤ 0.01 µM
Tyk2; MSD
  IC50: 0.01 to 0.1 µM

## CC(=O)Nc1cc(Nc2cc(C)nc(C(C)(F)F)n2)c(OCCCF)cn1 [Example 295, N-(4-((2-(1,1-difluoroethyl)-6-methylpyrimidin-4-yl)amino)-5-(3-fluoropropoxy)pyridin-2-yl)acetamide]
JH2 domain of human Tyk2; [2]
  IC50: ≤ 0.01 µM
Tyk2; MSD
  IC50: 0.01 to 0.1 µM

## CC(=O)Nc1cc(Nc2cc(C)nc(C(C)(F)F)n2)c(-c2cnc(CN3CCN(C)CC3)cn2)cn1 [Example 792, N-(4-((2-(1,1-difluoroethyl)-6-methylpyrimidin-4-yl)amino)-5-(5-((4-methylpiperazin-1-yl)methyl)pyrazin-2-yl)pyridin-2-yl)acetamide]
JH2 domain of human Tyk2; [1]
  IC50: ≤ 0.01 µM
Tyk2
  IC50: 0.01 to 0.1 µM
